The term IC50 denotes the concentration that gives 50% inhibition. High values mean a need for much substance, low ones inhibition by little substance.

This experiment deals with T1, Dimer of Gag-Pol polyprotein [501-599] (Human immunodeficiency virus 1, UniProt P03367).
T1 construct: 501-599
Kind of experiment: Protease Inhibition Assay. Particulars: pH 5.5; 30 °C. The protocol: All enzyme assays were performed under initial velocity and steady-state conditions. The conditions for the enzyme catalyzed hydrolysis of the cleavage site peptide VSQN-(beta-naphthylalanine)-PIV were established with respect to time and enzyme concentration to yield linear initial velocity data. […] The detection of product was monitored with fluorescence (excitation 270 nm, emission 330 nm).
`CC(C)(C)OC(=O)N[C@@H](Cc1ccccc1)[C@@H](O)C[C@]1(Cc2ccccc2)N=CC(C2c3ccccc3C[C@H]2O)C1=O` (some centres not stated) [Pyrrolinone deriv. 6] displayed an IC50 of 11.9 nM. This counts as double-digit nanomolar.
As for `CC(C)C[C@@]1(C2C=N[C@@](Cc3ccccc3)(C[C@H](O)[C@H](Cc3ccccc3)NC(=O)OC(C)(C)C)C2=O)N=CC([C@@H](Cc2ccccc2)C(N)=O)C1=O` (some centres not stated) [Pyrrolinone deriv. 1], the IC50 amounted to 10 nM.
Molecule `O=C(N[C@@H](Cc1ccccc1)[C@@H](O)C[C@]1(Cc2ccccc2)N=CC(C2c3ccccc3C[C@H]2O)C1=O)O[C@H]1CCOC1` (stereo partly drawn) [(3S)-oxolan-3-yl N-[(2S,3S)-4-[(2S)-2-benzyl-4-[(2R)-2-hydroxy-2,3-dihydro-1H-inden-1-yl]-3-oxo-2,3-dihydro-1H-pyrrol-2-yl]-3-hydroxy-1-phenylbutan-2-yl]carbamate] displayed an IC50 of 2 nM.
`O=C(N[C@@H](Cc1ccccc1)[C@@H](O)C[C@@H](Cc1ccccc1)C(=O)NC1c2ccccc2C[C@H]1O)O[C@H]1CCOC1` (stereo partly drawn) [(3S)-oxolan-3-yl N-[(2S,3S,5R)-5-benzyl-3-hydroxy-5-{[(2R)-2-hydroxy-2,3-dihydro-1H-inden-1-yl]carbamoyl}-1-phenylpentan-2-yl]carbamate] showed an IC50 of 0.03 nM.
Regarding `CC(C)C[C@@]1(C2C=N[C@@](Cc3ccccc3)(C[C@H](O)[C@H](Cc3ccccc3)NC(=O)O[C@H]3CCOC3)C2=O)N=CC([C@@H](Cc2ccccc2)C(N)=O)C1=O` (some centres not stated) [Pyrrolinone deriv. 2], the IC50 was 1.3 nM.
`CC(C)(C)OC(=O)N[C@@H](Cc1ccccc1)[C@@H](O)C[C@@H](Cc1ccccc1)C(=O)NC1c2ccccc2C[C@H]1O` (stereo partly drawn) [tert-butyl N-[(2S,3S,5R)-5-benzyl-3-hydroxy-5-{[(2R)-2-hydroxy-2,3-dihydro-1H-inden-1-yl]carbamoyl}-1-phenylpentan-2-yl]carbamate]: half-maximal inhibition (IC50) was put at 0.3 nM.
Regarding `CC(C)C[C@H](NC(=O)[C@H](Cc1ccccc1)C[C@H](O)[C@H](Cc1ccccc1)NC(=O)OC(C)(C)C)C(=O)N[C@@H](Cc1ccccc1)C(N)=O` [Hydroxyethylene dipeptide isostere], the half-maximal inhibitory concentration (IC50) is 0.6 nM.

For the origin of these results see BindingDB's records for doi:10.1021/jm0204587 (University of Pennsylvania, 2003).
